In patent publication US20200038418A1, “METHODS OF TREATING AUTISM SPECTRUM DISORDER USING AMINOSTEROL COMPOSITIONS” (Enterin, Inc., priority 2018, published 2020):

Key:
[1] = test system: patients with PD and constipation; assay: Stage 2 CNS symptoms (UPDRS, MMSE, PDHQ, BDI-II); format: in vivo, human; conditions: for UPDRS Part 1 (NMS) (Mean, SD) / BDI-II (Mean, SD) / PDHQ (Mean, SD): n = 34; for hallucinations and delusions improved or disappeared: during treatment, patients with hallucinations or delusions at baseline
Excerpt: (9) Unified Parkinson's Disease Rating Scale (UPDRS), which consists of 42 items in four subscales (Part I=Non-Motor Aspects of Experiences of Daily Living (nM-EDL) (1.1 cognitive impairment, 1.2 hallucinations and psychosis, 1.3 depressed mood, Part II=Motor Aspects of Experiences of Daily Living (M-EDL), Part III=Motor Examination, and Part IV=Motor Complications;
Exploratory end-points, in addition to constipation, included for example, (i) depression assessed using the Beck Depression Inventory (BDI-II) (Steer et al. 2000) and Unified Parkinson's Disease Rating Scale (UPDRS); (ii) cognition assessed using the Mini Mental State Examination (MMSE) (Palsteia et al., 2018), Unified Parkinson's Disease Rating Scale (UPDRS), and Trail Making Test (TMT); (iii) sleep and REM-behavior disorder (RBD) using a daily sleep diary, I-Button Temperature Assessment, a REM sleep behavior disorder (RBD) questionnaire (RBDQ) (Stiasny-Kolster et al. 2007), and the UPDRS; (iv) hallucinations assessed using the PD hallucinations questionnaire (PDHQ) (Papapetropoulos et al. 2008), the UPDRS, and direct questioning; (v) fatigue using the Parkinson's Disease Fatigue Scale (PFS-16) and the UPDRS; (vi) motor functions using the UPDRS; and (vii) non-motor functions using the UPDRS.
Assessments were made at baseline and at the end of the fixed dose and washout periods. Circadian system status was evaluated by continuously monitoring wrist skin temperature (Thermochron iButton DS1921H; Maxim, Dallas) following published procedures (Sarabia et al. 2008).
An exploratory analysis was done with respect to the sleep data, the body temperature data, mood, fatigue, hallucinations, cognition and other motor and non-motor symptoms of PD. Continuous measurements within a subject were compared with a paired t-test and continuous measurements between subject groups were compared with a two-group t-test. Categorical data were compared with a chi-squared test or a Fisher's exact test if the expected cell counts are too small for a chi-squared test.

[2] = Solubility in water; format: physicochemical; conditions: pH<3.5 (the pH of gastric fluid)
[3] = Phase 2 trial Stage 1, adverse events; format: in vivo, human; conditions: Stage 1 (10 dosed), single oral doses
Excerpt: Tolerability limits included diarrhea or vomiting.

[4] = test system: C. elegans model of PD; conditions: C. elegans model of PD in vivo; cited from earlier work
[5] = Phase 2 trial Stage 2, adverse events; format: in vivo, human
Description: In Stage 2, 34 patients were evaluated.

[6] = Stage 2, fixed dose (during treatment)
[7] = Stage 2, fixed dose (during treatment), listed as Squalamine (ENT-01)
[8] = Stage 2, wash-out, listed as Squalamine (ENT-01)
[9] = Stage 2 (34 dosed), daily oral dosing
[10] = Stage 2 (34 dosed), daily oral dosing, unrelated to ENT-01

Compound: CC(C)[C@@H](CC[C@@H](C)[C@H]1CC[C@H]2[C@@H]3[C@H](O)C[C@H]4C[C@@H](NCCCNCCCCN)CC[C@]4(C)[C@H]3CC[C@]12C)OS(=O)(=O)O (single isomer, unassigned) [squalamine (ENT-01), squalamine]
- time hallucinations and delusions did not return following discontinuation ([1]; 1 patient): 4 weeks
- UPDRS Part 1 (NMS) (Mean, SD) ([1]; Stage 2, end of fixed dose): 10.6 (6.18))
- UPDRS Part 1 (NMS) (Mean, SD) ([1]; Stage 2, end of wash-out): 9.5 (5.27)
- UPDRS Part 1 (NMS) (Mean, SD) ([1]; Stage 2, end of wash-out, listed as aminosterol): 9.5
- BDI-II (Mean, SD) [1, 6]: 9.9
- PDHQ (Mean, SD) [1, 6]: 1.8
- BDI-II (Mean, SD) [1, 7]: 9.9 (6.45)
- PDHQ (Mean, SD) [1, 7]: 1.8 (3.34)
- BDI-II (Mean, SD) ([1]; Stage 2, fixed dose (during treatment), listed as aminosterol): 9.9
- BDI-II (Mean, SD) ([1]; Stage 2, wash-out): 8.7
- PDHQ (Mean, SD) ([1]; Stage 2, wash-out): 0.9
- BDI-II (Mean, SD) [1, 8]: 8.7 (5.19)
- PDHQ (Mean, SD) [1, 8]: 0.9 (2.33)
- BDI-II (Mean, SD) ([1]; Stage 2, wash-out, listed as aminosterol): 8.7
- time hallucinations and delusions did not return following discontinuation ([1]; another patient): 2 weeks
- hallucinations and delusions improved or disappeared [1]: 5 of 6
- hallucinations and delusions improved or disappeared ([1]; listed as ENT-01): five
- dissolution [2]: readily dissolves
- Abdominal pain, Mild [3]: 2(20) n, %
- Abdominal pain, Moderate [3]: 3(30) n, %
- Blood in urine, Moderate [3]: 0 n, %
- Diarrhea, Mild [3]: 1(10) n, %
- Diarrhea, Moderate [3]: 3(30) n, %
- Diarrhea, Severe [3]: 0 n, %
- Difficulty falling asleep, Mild [3]: 0 n, %
- Difficulty falling asleep, Moderate [3]: 0 n, %
- Dizziness, Mild [3]: 0 n, %
- Dizziness, Moderate [3]: 0 n, %
- Eye infection, Mild [3]: 0 n, %
- Eye infection, Moderate [3]: 0 n, %
- Flatulence, Mild [3]: 2(20) n, %
- Flatulence, Moderate [3]: 0 n, %
- Headache, Mild [3]: 1(10) n, %
- Headache, Moderate [3]: 0 n, %
- Increased urinary frequency, Mild [3]: 0 n, %
- Increased urinary frequency, Moderate [3]: 0 n, %
- Loss of appetite, Moderate [3]: 0 n, %
- Lower GI bleed, Severe [3]: 0 n, %
- Nausea, Mild [3]: 4(40) n, %
- Nausea, Moderate [3]: 0 n, %
- Skin lesions-rash, Mild [3]: 0 n, %
- Skin lesions-rash, Moderate [3]: 0 n, %
- Urinary retention, Mild [3]: 0 n, %
- Urinary retention, Moderate [3]: 0 n, %
- Urinary tract infection, Mild [3]: 0 n, %
- Urinary tract infection, Moderate [3]: 0 n, %
- Vomiting, Mild [3]: 1(10) n, %
- Vomiting, Moderate [3]: 0 n, %
- Worsening acid reflux, Mild [3]: 0 n, %
- Worsening acid reflux, Moderate [3]: 0 n, %
- Worsening hemorrhoid, Mild [3]: 0 n, %
- Worsening hemorrhoid, Moderate [3]: 0 n, %
- Blood in urine, Mild ([3]; unrelated to ENT-01): 1(10) n, %
- Loss of appetite, Mild ([3]; unrelated to ENT-01): 1(10) n, %
- formation of aggregates of αS [4]: inhibit the formation of aggregates of αS
- Abdominal pain, Mild [5, 9]: 4(11.7) n, %
- Abdominal pain, Moderate [5, 9]: 2(5.8) n, %
- Blood in urine, Moderate [5, 9]: 0 n, %
- Diarrhea, Mild [5, 9]: 12(35) n, %
- Diarrhea, Moderate [5, 9]: 2(5.8) n, %
- Diarrhea, Severe [5, 9]: 1(2.9) n, %
- Difficulty falling asleep, Mild [5, 9]: 1(3) n, %
- Difficulty falling asleep, Moderate [5, 9]: 0 n, %
- Dizziness, Mild [5, 9]: 7(20.5) n, %
- Dizziness, Moderate [5, 9]: 1(2.9) n, %
- Eye infection, Mild [5, 9]: 1(3) n, %
- Eye infection, Moderate [5, 9]: 0 n, %
- Flatulence, Mild [5, 9]: 1(3) n, %
- Flatulence, Moderate [5, 9]: 0 n, %
- Headache, Mild [5, 9]: 3(8.8) n, %
- Headache, Moderate [5, 9]: 0 n, %
- Increased urinary frequency, Mild [5, 9]: 2(5.8) n, %
- Increased urinary frequency, Moderate [5, 9]: 0 n, %
- Loss of appetite, Moderate [5, 9]: 0 n, %
- Nausea, Mild [5, 9]: 18(52) n, %
- Nausea, Moderate [5, 9]: 1(2.9) n, %
- Skin lesions-rash, Mild [5, 9]: 3(8.8) n, %
- Skin lesions-rash, Moderate [5, 9]: 0 n, %
- Urinary retention, Mild [5, 9]: 1(3) n, %
- Urinary retention, Moderate [5, 9]: 0 n, %
- Urinary tract infection, Mild [5, 9]: 1(3) n, %
- Urinary tract infection, Moderate [5, 9]: 2(5.8) n, %
- Vomiting, Mild [5, 9]: 2(5.8) n, %
- Vomiting, Moderate [5, 9]: 0 n, %
- Worsening acid reflux, Mild [5, 9]: 4(11.7) n, %
- Worsening acid reflux, Moderate [5, 9]: 0 n, %
- Worsening hemorrhoid, Mild [5, 9]: 1(3) n, %
- Worsening hemorrhoid, Moderate [5, 9]: 0 n, %
- Blood in urine, Mild [5, 10]: 0 n, %
- Loss of appetite, Mild [5, 10]: 0 n, %
- Lower GI bleed, Severe ([5]; Stage 2, daily oral dosing, colonic diverticulosis, polyp, patient on aspirin, Plavix and naproxen, unrelated to ENT-01): 1(2.5) n, %
